Data as given in ChEMBL document CHEMBL5390211, “Discovery of N-Arylsulfonyl-Indole-2-Carboxamide Derivatives as Galectin-3 and Galectin-8 C-Terminal Domain Inhibitors” (ACS Med Chem Lett, 2023).

Experiments:
Galectin-3 [1] = biological target: T1, Galectin-3 (Homo sapiens, UniProt P17931); experiment: Binding affinity to human Gal-3 expressed in Escherichia coli BL21 (DE3) cells by competitive fluorescence polarization assay
Galectin-8 [2] = biological target: T2, Galectin-8 (Homo sapiens, UniProt O00214); experiment: Binding affinity to C-terminal domain human Gal-8 expressed in Escherichia coli BL21 (DE3) cells by competitive fluorescence polarization assay
T2 sequence (O00214 whole entry): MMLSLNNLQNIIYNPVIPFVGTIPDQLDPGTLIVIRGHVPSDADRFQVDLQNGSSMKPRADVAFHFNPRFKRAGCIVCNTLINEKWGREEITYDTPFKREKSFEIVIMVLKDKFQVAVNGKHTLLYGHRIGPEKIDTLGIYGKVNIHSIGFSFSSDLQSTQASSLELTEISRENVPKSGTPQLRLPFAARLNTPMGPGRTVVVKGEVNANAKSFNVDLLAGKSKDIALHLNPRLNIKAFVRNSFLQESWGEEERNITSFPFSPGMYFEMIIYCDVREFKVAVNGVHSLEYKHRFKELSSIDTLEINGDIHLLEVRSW

Galectin-1 = Galectin-1 (Homo sapiens, UniProt P09382); experiment: Binding affinity to human Gal-1 expressed in Escherichia coli BL21 (DE3) by competitive fluorescence polarization assay
Chain of Galectin-1 (P09382 whole entry, the tested form may be a part): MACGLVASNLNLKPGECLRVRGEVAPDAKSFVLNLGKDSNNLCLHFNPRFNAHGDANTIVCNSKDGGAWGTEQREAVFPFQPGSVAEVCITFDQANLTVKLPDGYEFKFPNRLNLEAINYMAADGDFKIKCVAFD

Galectin-8 [3] = biological target: T2, Galectin-8; experiment: Binding affinity to N-terminal domain human Gal-8 expressed in Escherichia coli BL21 (DE3) cells by competitive fluorescence polarization assay
[4] = Cytotoxicity against human MRC5 cells assessed as cell viability at 10 uM incubated for 24 hrs by MTT assay relative to control; assay type: toxicity, cell-based; details: read-out: Activity
Galectin-3 [5] = biological target: T1, Galectin-3
Description: Binding affinity to human Gal-3 expressed in Escherichia coli BL21 (DE3) cells assessed as change in enthalpy by isothermal titration calorimetry analysis

Galectin-3 [6] = biological target: T1, Galectin-3; remark: listed apart in the source
Description: Binding affinity to human Gal-3 expressed in Escherichia coli BL21 (DE3) cells assessed as change in gibbs free energy by isothermal titration calorimetry analysis

[7] = biological target: T3, Galectin-8 (Homo sapiens) (UniProt O00214)
T3 sequence (whole entry): T2 sequence (O00214 whole entry)
Description: Binding affinity to C-terminal domain human Gal-8 expressed in Escherichia coli BL21 (DE3) cells assessed as change in gibbs free energy by isothermal titration calorimetry analysis

[8] = biological target: T3, Galectin-8 (Homo sapiens); remark: listed apart in the source
Description: Binding affinity to C-terminal domain human Gal-8 expressed in Escherichia coli BL21 (DE3) cells assessed as change in entropy by isothermal titration calorimetry analysis

Galectin-8 [9] = biological target: T2, Galectin-8; experiment: Binding affinity to C-terminal domain human Gal-8 expressed in Escherichia coli BL21 (DE3) cells by isothermal titration calorimetry analysis
[10] = Cytotoxicity against human MRC5 cells assessed as cell viability at 1 uM incubated for 24 hrs by MTT assay relative to control; assay type: toxicity, cell-based; details: read-out: Activity
MRC5 = experiment: Inhibition of cell migration in human MRC5 cells assessed as reduction in would closure at 1 uM incubated for 48 hrs by Giemsa staining based microscopic analysis relative to control; assay type: toxicity
[11] = biological target: T3, Galectin-8 (Homo sapiens); remark: listed apart in the source
Description: Binding affinity to C-terminal domain human Gal-8 expressed in Escherichia coli BL21 (DE3) cells assessed as change in enthalpy by isothermal titration calorimetry analysis

Galectin-3 [12] = biological target: T1, Galectin-3; experiment: Binding affinity to human Gal-3 expressed in Escherichia coli BL21 (DE3) cells by isothermal titration calorimetry analysis
Galectin-3 [13] = biological target: T1, Galectin-3; remark: listed apart in the source
Description: Binding affinity to human Gal-3 expressed in Escherichia coli BL21 (DE3) cells assessed as change in entropy by isothermal titration calorimetry analysis

Galectin-8 [14] = biological target: T2, Galectin-8; experiment: Binding affinity to N-terminal domain human Gal-8 expressed in Escherichia coli BL21star (DE3) cells by competitive fluorescence polarization assay
Galectin-8 [15] = biological target: T2, Galectin-8; experiment: Binding affinity to N-terminal domain human Gal-8 expressed in Escherichia coli BL21 (DE3) cells by isothermal titration calorimetry analysis

T1 sequence (P17931 whole entry, the tested form may be a part): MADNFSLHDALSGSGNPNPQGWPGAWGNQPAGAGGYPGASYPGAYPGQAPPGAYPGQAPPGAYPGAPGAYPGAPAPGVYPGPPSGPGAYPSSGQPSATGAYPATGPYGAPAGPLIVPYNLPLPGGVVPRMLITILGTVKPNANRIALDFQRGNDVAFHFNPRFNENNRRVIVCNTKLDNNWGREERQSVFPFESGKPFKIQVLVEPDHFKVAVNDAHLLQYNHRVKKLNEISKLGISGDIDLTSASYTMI

Row | Compound | Kd (Galectin-3 [1]) [µM] | Kd (Galectin-8 [2]) [µM] | also measured
1 | O=C(NS(=O)(=O)c1ccccc1Cl)c1cc2cc(Oc3ccc(Cl)c(Cl)c3)ccc2[nH]1 | 24.9 | 16.4 | –
2 | O=C(NS(=O)(=O)c1cc(Cl)c(Cl)s1)c1cc2cc(Oc3ccc(Cl)c(Cl)c3)ccc2o1 | 30.5 | 9.6 | Kd (Galectin-1): > 500 µM
3 | O=C(NS(=O)(=O)c1ccc(Cl)cc1Cl)c1cc2cc(Oc3ccc(Cl)c(Cl)c3)ccc2[nH]1 | 16 | 9.4 | Kd (Galectin-1): 43.7 µM; Kd (Galectin-8 [3]): > 300 µM
4 | O=C(NS(=O)(=O)c1ccc2ncsc2c1)c1cc2cc(Oc3ccc(Cl)c(Cl)c3)ccc2[nH]1 | 7.6 | 8.3 | viability at 24 h, 10 µM [4]: 66%; deltaH (Galectin-3 [5]): 1.28 kcal/mol; deltaG (Galectin-3 [6]): -7.35 kcal/mol; deltaG [7]: -7.12 kcal/mol; -TdeltaS [8]: -12 kcal/mol; Kd (Galectin-1): 107 µM; Kd (Galectin-8 [9]): 6.04 µM; Kd (Galectin-8 [3]): 210 µM; viability at 24 h, 1 µM [10]: 95%; inhibition at 1 µM (MRC5): 14%; deltaH [11]: 4.91 kcal/mol; Kd (Galectin-3 [12]): 4.12 µM; -TdeltaS (Galectin-3 [13]): -8.63 kcal/mol
5 | CCOC(=O)c1ccc(S(=O)(=O)N(C)C(=O)c2cc3cc(Oc4ccc(Cl)c(Cl)c4)ccc3n2C)cc1 | 363 | – | –
6 | O=C(NS(=O)(=O)c1csc2ccccc12)c1cc2cc(Oc3ccc(Cl)c(Cl)c3)ccc2[nH]1 | 10.6 | 8.2 | –
7 | Cc1noc(C)c1S(=O)(=O)NC(=O)c1cc2cc(Oc3ccc(Cl)c(Cl)c3)ccc2[nH]1 | 74.2 | 22.9 | –
8 | O=C(NS(=O)(=O)c1cc(Cl)c(Cl)s1)c1cc2cc(Oc3ccc(Br)cc3F)ccc2[nH]1 | 27.1 | 7.3 | –
9 | O=C(NS(=O)(=O)c1cc(Cl)c(Cl)s1)c1cc2cc(Oc3ccc(Br)c(F)c3)ccc2[nH]1 | 14.3 | 8 | –
10 | Cc1nc(Cl)sc1S(=O)(=O)NC(=O)c1cc2cc(Oc3ccc(Cl)c(Cl)c3)ccc2[nH]1 | 31 | 20.3 | –
11 | O=C(NS(=O)(=O)c1ccc2oc(=O)ccc2c1)c1cc2cc(Oc3ccc(Cl)c(Cl)c3)ccc2[nH]1 | 10 | 18.7 | deltaH (Galectin-3 [5]): -3.82 kcal/mol; deltaG (Galectin-3 [6]): -6.77 kcal/mol; deltaG [7]: -7.77 kcal/mol; -TdeltaS [8]: -6.76 kcal/mol; Kd (Galectin-1): 86.9 µM; Kd (Galectin-8 [9]): 2.01 µM; Kd (Galectin-8 [3]): > 300 µM; deltaH [11]: -1.01 kcal/mol; Kd (Galectin-3 [12]): 11 µM; -TdeltaS (Galectin-3 [13]): -2.94 kcal/mol
12 | O=C(NS(=O)(=O)c1ccccc1)c1cc2cc(Oc3ccc(Cl)c(Cl)c3)ccc2[nH]1 | 37.4 | 18.7 | –
13 | O=C(NS(=O)(=O)c1ccn(Cl)n1)c1cc2cc(Oc3ccc(Cl)c(Cl)c3)ccc2[nH]1 | 76.9 | 57 | –
14 | COc1cccc(S(=O)(=O)NC(=O)c2cc3cc(Oc4ccc(Cl)c(Cl)c4)ccc3[nH]2)c1 | 39.2 | 17.7 | –
15 | O=C(NS(=O)(=O)c1ccc([N+](=O)[O-])cc1)c1cc2cc(Oc3ccc(Cl)c(Cl)c3)ccc2[nH]1 | 30 | 19.2 | –
16 | O=C(NS(=O)(=O)c1cc(Cl)sc1Cl)c1cc2cc(Oc3ccc(Cl)c(Cl)c3)ccc2[nH]1 | 21.9 | 17.3 | –
17 | O=C(NS(=O)(=O)c1ccc(Cl)cc1Cl)c1cc2cc(Oc3ccc(F)cc3)ccc2[nH]1 | 121 | 57 | –
18 | O=C(NS(=O)(=O)c1cc(Cl)c(Cl)s1)c1cc2cc(Oc3ccc(Cl)cc3Br)ccc2[nH]1 | 24.9 | 14.1 | –
19 | O=C(NS(=O)(=O)c1ccc(Cl)cc1)c1cc2cc(Oc3ccc(Cl)c(Cl)c3)ccc2[nH]1 | 80.9 | 18.1 | –
20 | O=C(O)c1ccc(S(=O)(=O)NC(=O)c2cc3cc(Oc4ccc(Cl)c(Cl)c4)ccc3[nH]2)cc1 | 119 | 73 | –

Row | Compound | Kd (Galectin-3 [1]) [µM] | Kd (Galectin-8 [2]) [µM] | also measured
21 | OC[C@H]1O[C@@H](S[C@@H]2O[C@H](CO)[C@H](O)[C@H](n3cc(-c4cccc(F)c4)nn3)[C@H]2O)[C@H](O)[C@@H](n2cc(-c3cccc(F)c3)nn2)[C@H]1O [OLITIGALTIN] | – | 21.6 | Kd (Galectin-8 [3]): 281 µM; inhibition at 1 µM (MRC5): 49%; Kd (Galectin-8 [14]): 86 µM
22 | O=C(NS(=O)(=O)c1ccc(F)cc1S(=O)(=O)C(F)(F)F)c1cc2cc(Oc3ccc(Cl)c(Cl)c3)ccc2[nH]1 | 32.3 | 16 | –
23 | O=C(NS(=O)(=O)c1cc(Cl)c(Cl)s1)c1cc2cc(Oc3ccc(Cl)cc3Cl)ccc2[nH]1 | 22.7 | 19.3 | –
24 | CCOC(=O)c1ccc(S(=O)(=O)NC(=O)c2cc3cc(Oc4ccc(Cl)c(Cl)c4)ccc3n2C)cc1 | 36.5 | 16.1 | Kd (Galectin-1): > 500 µM; Kd (Galectin-8 [3]): > 300 µM
25 | CC(C)c1ccc(Oc2ccc3cc(C(=O)NS(=O)(=O)c4ccc(Cl)cc4Cl)[nH]c3c2)cc1 | 784 | – | –
26 | LACTOSE, ANHYDROUS | – | – | Kd (Galectin-8 [15]): 893 µM; Kd (Galectin-8 [9]): 93 µM
27 | O=C(NS(=O)(=O)c1cc(Cl)c(Cl)s1)c1cc2cc(Oc3ccc(Cl)cn3)ccc2[nH]1 | 212 | > 300 | –
28 | CCOC(=O)c1ccc(S(=O)(=O)NC(=O)c2cc3cc(Oc4ccc(Cl)c(Cl)c4)ccc3[nH]2)cc1 | 17.1 | 17.5 | Kd (Galectin-1): 118 µM; Kd (Galectin-8 [3]): 228 µM
29 | O=C(NS(=O)(=O)c1ccccn1)c1cc2cc(Oc3ccc(Cl)c(Cl)c3)ccc2[nH]1 | 210 | 41.8 | –
30 | O=C(NS(=O)(=O)c1cc(Cl)c(Cl)s1)c1cc2cc(Oc3ccc(Cl)c(Cl)c3)ccc2[nH]1 | 20 | 10.9 | Kd (Galectin-1): 70.8 µM; Kd (Galectin-8 [3]): > 300 µM
31 | O=C(NS(=O)(=O)c1cc(Cl)c(Cl)s1)c1cc2cc(Oc3ccc(Br)c(Cl)c3)ccc2[nH]1 | 23.7 | 9.4 | –
32 | O=C(NS(=O)(=O)c1ccc(OC(F)(F)F)cc1)c1cc2cc(Oc3ccc(Cl)c(Cl)c3)ccc2[nH]1 | 15.5 | 18.5 | –
33 | O=C(NS(=O)(=O)c1ccc(Cl)cc1Cl)c1cc2c(Oc3ccc(F)cc3)cccc2[nH]1 | 224 | 253 | –
34 | O=C(NS(=O)(=O)c1ccc2c(c1)OCC2)c1cc2cc(Oc3ccc(Cl)c(Cl)c3)ccc2[nH]1 | 20.1 | 15.5 | –
35 | O=C(NS(=O)(=O)c1cc(F)c(F)c(F)c1)c1cc2cc(Oc3ccc(Cl)c(Cl)c3)ccc2[nH]1 | 33 | 14.9 | –
36 | O=C(NS(=O)(=O)c1cc(Cl)c(Cl)s1)c1cc2cc(Oc3cccc(Cl)c3Br)ccc2[nH]1 | 27.3 | 19.2 | –
37 | O=C(NS(=O)(=O)Cc1noc2ccccc12)c1cc2cc(Oc3ccc(Cl)c(Cl)c3)ccc2[nH]1 | 321 | 24.6 | –
38 | O=C(NS(=O)(=O)c1sc(Cl)cc1Cc1ccccc1)c1cc2cc(Oc3ccc(Cl)c(Cl)c3)ccc2[nH]1 | 35.9 | 5.6 | Kd (Galectin-1): 96.1 µM
39 | O=C(NS(=O)(=O)c1ccc(Cl)cc1Cl)c1cc2ccc(Oc3ccc(F)cc3)cc2[nH]1 | 303 | 76.2 | –
40 | O=C(NS(=O)(=O)c1sccc1Cc1ccccc1)c1cc2cc(Oc3ccc(Cl)c(Cl)c3)ccc2[nH]1 | 22.7 | 12.5 | viability at 24 h, 10 µM [4]: 99%; deltaH (Galectin-3 [5]): -4.74 kcal/mol; deltaG (Galectin-3 [6]): -6.68 kcal/mol; deltaG [7]: -7.76 kcal/mol; -TdeltaS [8]: -5.47 kcal/mol; Kd (Galectin-1): 138 µM; Kd (Galectin-8 [9]): 2.06 µM; Kd (Galectin-8 [3]): 203 µM; viability at 24 h, 1 µM [10]: 97%; inhibition at 1 µM (MRC5): 21%; deltaH [11]: -2.29 kcal/mol; Kd (Galectin-3 [12]): 12.8 µM; -TdeltaS (Galectin-3 [13]): -1.94 kcal/mol
